Patent US20090163481A1, “PPAR-DELTA LIGANDS AND METHODS OF THEIR USE” (priority 2007, published 2009)
Read-outs that look alike come from different tables or passages of the source.

Legend:
[1] = molecular target: T1, LBD of PPARδ protein (Homo sapiens, UniProt Q03181); assay: PPARδ ligand-binding domain (LBD)/Gal4 UAS-tk-luciferase reporter assay in U2-OS cells; format: cell-based
T1 construct: co-transfection of a plasmid containing an LBD/Gal4 fusion construct; expressed in transfected cells; host or cells: U2-OS (human bone cancer line)
T1 sequence (Q03181 211-439 limits assumed): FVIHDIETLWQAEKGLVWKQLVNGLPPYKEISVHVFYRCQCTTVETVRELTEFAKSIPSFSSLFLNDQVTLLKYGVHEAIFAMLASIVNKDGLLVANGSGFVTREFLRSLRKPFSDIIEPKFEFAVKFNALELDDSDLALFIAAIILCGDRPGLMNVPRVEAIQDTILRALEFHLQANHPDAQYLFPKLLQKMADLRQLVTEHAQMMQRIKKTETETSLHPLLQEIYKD
Procedure: (§1) General Testing Procedures. Each ligand was screened for PPARδ binding and transactivation activity through the use of two complementary reporter assays as described below. In both systems, transfection efficiency was standardized by co-transfection of a control Renilla luciferase. U2-OS (human bone cancer line) cells were used for both assays because this is the cell line of choice for screening PPAR ligands. At 18 h post-transfection, GW 501, with and without the ligands of the disclosure, was added to the cells and incubated for an additional 24 h. The cells were then harvested and luciferase activities profiled.
A PPARδ protein ligand-binding domain (LBD) assay. The LBD assay consists of cellular co-transfection of a plasmid containing an LBD/Gal4 fusion construct and a vector containing a UAS-tk-luciferase reporter construct under the transcriptional control of a Gal4 upstream activating sequence. This system was used to test for binding activities of candidate PPARδ ligands to the LBD of PPARδ protein.
(§2) Referring to FIG. 3, U2-OS cells were transiently transfected with appropriate expression and reporter vectors. Ligands were added to the cell cultures 24 h post-transfection and incubated for an additional 16 h. Lipoprotein lipase (LPL; 2 μg/ml) was added with VLDL (5 μg/ml) to release PPARδ-active triglycerides. FIG. 3A: PPARδ LBD/Gal4/UAS-tk-luc competition assays with VLDL SR13904 (0-10 μM). The reporter activation (fold increase over blank) is presented relative to GW501516 at 7 nM (fold increase over blank=100). FIG. 3B: PPRE reporter assays using 0, 1, and 10 μM SR13904+VLDL. All assays were repeated in triplicate.

[2] = molecular target: T2, PPARδ (Homo sapiens, UniProt Q03181); assay: PPRE promoter/luciferase reporter (transactivation) assay in U2-OS cells; format: cell-based
T2 construct: expressed in transfected cells; host or cells: U2-OS (human bone cancer line)
T2 sequence (Q03181 1-441): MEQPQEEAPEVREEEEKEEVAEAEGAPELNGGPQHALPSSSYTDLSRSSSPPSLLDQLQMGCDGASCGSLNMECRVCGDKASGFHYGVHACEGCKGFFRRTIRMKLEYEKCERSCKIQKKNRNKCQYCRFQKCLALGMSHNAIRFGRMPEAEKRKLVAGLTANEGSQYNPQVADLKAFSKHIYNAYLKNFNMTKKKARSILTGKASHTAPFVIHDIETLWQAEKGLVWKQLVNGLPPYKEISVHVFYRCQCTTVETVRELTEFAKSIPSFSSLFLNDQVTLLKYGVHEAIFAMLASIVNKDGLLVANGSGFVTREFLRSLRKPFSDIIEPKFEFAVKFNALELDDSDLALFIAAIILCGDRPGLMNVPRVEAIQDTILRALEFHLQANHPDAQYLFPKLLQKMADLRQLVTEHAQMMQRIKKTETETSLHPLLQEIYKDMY
Procedure: as §1
A promoter/luciferase reporter assay. This assay involves co-transfection of a PPARδ expression vector and a plasmid containing a luciferase gene under the control of PPARδ responsive DNA element (three copies of a consensus PPAR response element, PPRE). This assay was used to directly test ligand effects on PPARδ-responsive genes.
as §2

[3] = molecular target: T3, ligand binding domain of PPAR delta (Homo sapiens, UniProt Q03181); assay: LANTHA SCREEN TR-FRET PPARδ Competitive Binding Assay
T3 construct: purchased Invitrogen
T3 sequence (Q03181 211-439 limits assumed): T1 sequence (Q03181 211-439 limits assumed)
Procedure: The LANTHA SCREEN™ TR-FRET PPARδ Competitive Binding Assay was conducted for a variety of compounds according to the instructions provided by the manufacturer (Invitrogen). In addition, proliferation assays were conducted. In Table 2, “Prolif IC50” is the concentration that inhibits cell viability (or growth) by 50% relative to a vehicle control, and “TR-F binding IC50 (μM)” is the concentration that competes binding by a labeled pan-agonist to the ligand binding domain of PPAR delta, by 50%.

[4] = tested on: A549 cells; assay: Western blotting of cell-cycle regulatory proteins in A549 cells; format: cell-based, human; conditions: A549, 20 μM, 24 and 48 h, 0.5% FBS
Procedure: Referring now to FIG. 5C, SR13904 treatment of A549 human NSCLC cell line modulates cell cycle protein expression patterns toward an inhibitory phenotype. Given the flow cytometry results described above, the effect of SR13904 on the expression of some key cell-cycle regulatory proteins involved in G1 and S phases was investigated. A549 cells were grown in phenol-red-free DMEM+0.5% charcoal-treated FBS and exposed to the ligand. […]

[5] = tested on: MMP-9; assay: Gelatin zymogel analysis of MMP-9 activity in PC-3 cells; format: cell-based, human; conditions: PC-3, 16 h; VLDL 2 μg/ml + LPL 2 μg/ml and/or 10 μM SR13904
Procedure: Zymogel studies were performed to determine whether PPARδ could regulate MMP-9 expression/activity in prostate cancer cells. Over-expression of MMP-9 is directly linked to metastatic prostate cancer, at least in part through mitogen/extracellular-signal-regulated kinase kinase 5/extracellular signal-regulated kinase-5 (MEK5/ERK5). An increase in MMP-9 activity in VLDL-treated PC-3 cells was observed (see FIG. 7), and this activation was attenuated by co-incubation with SR 13904.
Referring to FIG. 7, PC-3 cultures were treated with ligands (2 μg/ml VLDL+2 μg/ml LPL and/or 10 μM SR13904) for 16 h prior to harvesting of cells (for cell counting) and collection and concentration of conditioned media. Loading was based on equal cell numbers, corresponding closely to equal loading volumes.

Cc1cc(SCc2sc(-c3cccc4ccccc34)nc2C)ccc1OCC(=O)O [SR 13904]
inhibition of binding of VLDL to PPARδ ([1]; SR13904 0-10 μM with VLDL): significantly inhibit
concentrations at which ligand binds LBD of PPARδ, attenuating LBD binding of GW501 ([1]; competition with GW501 (7 nM), U2-OS cells): 1 to 10 µM
PPARδ ligand profile (agonist/antagonist) ([1]; from GAL-4 binding and PPRE transactivation reporter screens): PPARδ antagonist
inhibition of PPARδ-mediated transactivation [2]: appear to inhibit
reporter expression via PPRE in combination with GW 501 ([2]; 1 μM ligand): significantly decreased
reporter expression via PPRE in combination with GW 501 ([2]; 10 μM ligand): completely inhibited
transcription activation of the PPRE reporter to GW501 ([2]; 1 and 10 μM ligand with GW501): completely eliminated
VLDL-related activation of the PPAR promoter element (PPRE) construct ([2]; co-treatment with 1 μM): completely block
IC50 ([3]; competes binding by a labeled pan-agonist by 50%, * = determined by approximation from a semi log graph, read-out: TR-F binding IC50): 2.4 µM
IC50 ([3]; repeat determination of TR-F binding IC50, read-out: repeat TR-F): 2.1 µM
levels of cyclin E, p21, and p27 [4]: little or no effect
steady state levels of CDK2, CDK4, cyclin D1, and cyclin A proteins [4]: decreased
MMP-9 activity [5]: attenuated
